Experimental data: patent publication US20250179094A1, “TGF-B INHIBITOR COMPOUND AND USE THEREOF” (Medinno Pharmaceutical Technology (Zhuhai) Co., Ltd., priority 2022, published 2025)

target: human TGFβR1 (Homo sapiens (Human), UniProt P36897); experiment: TGFβR1 kinase activity assay (ADP-Glo method); type: biochemical; settings: ATP 5 uM, TGFβR1tide substrate, 60 minutes at room temperature
Description: The principle of the activity assay was that TGFβR1 phosphorylates the substrate TGFβR1tide, consuming ATP in the process. […] The specific experimental steps were as follows. Compounds were diluted 4-fold in DMSO in a dilution plate, with the final starting concentration of the compounds being 10 μM, across 10 concentration gradient points. The compounds were then further diluted 50-fold into the kinase reaction buffer and incubated on a shaker for 20 minutes. Kinase was formulated with an enzyme reaction buffer. 2 μl kinase was added to each well of the reaction plate. 1 μl of the compound diluted in buffer was added to each well, and then the plate was sealed with a sealing membrane and centrifuged at 1000 g for 30 seconds, leaving it at room temperature for 10 minutes. Solutions of TGFβR1tide and ATP were prepared with the kinase reaction buffer, and 2 μL of the TGFβR1tide/ATP solution was added to the reaction plate. The plate was sealed with a sealing film and centrifuged at 1000 g for 30 seconds. It was allowed to react at room temperature for 60 minutes. Subsequently, 4 μL of ADP-Glo was transferred to a 384-well reaction plate and centrifuged at 1000 rpm/min for 1 minute, followed by incubation at 25° C. for 40 minutes. Then, 8 μL of Detection solution was transferred to the 384-well reaction plate and centrifuged at 1000 rpm/min for 1 minute, after which it was incubated at 25° C. for 40 minutes. The RLU (Relative Luminescence Unit) signal was read using a BMG microplate reader, which was used to characterize the degree of kinase activity.
3.1 The inhibition rate was calculated as follows: inhibition rate of compound (% inh)=100%−(compound−positive control)/(negative control−positive control)*100%.
The IC50 (half inhibition concentration) of a compound was obtained using the following non-linear fitting equation, wherein data analysis was performed using Graphpad 7.0 software.
X: log value of compound concentration; and Y: inhibition rate (% inhibition)

human TGFβR1, sequence (P36897 34-503): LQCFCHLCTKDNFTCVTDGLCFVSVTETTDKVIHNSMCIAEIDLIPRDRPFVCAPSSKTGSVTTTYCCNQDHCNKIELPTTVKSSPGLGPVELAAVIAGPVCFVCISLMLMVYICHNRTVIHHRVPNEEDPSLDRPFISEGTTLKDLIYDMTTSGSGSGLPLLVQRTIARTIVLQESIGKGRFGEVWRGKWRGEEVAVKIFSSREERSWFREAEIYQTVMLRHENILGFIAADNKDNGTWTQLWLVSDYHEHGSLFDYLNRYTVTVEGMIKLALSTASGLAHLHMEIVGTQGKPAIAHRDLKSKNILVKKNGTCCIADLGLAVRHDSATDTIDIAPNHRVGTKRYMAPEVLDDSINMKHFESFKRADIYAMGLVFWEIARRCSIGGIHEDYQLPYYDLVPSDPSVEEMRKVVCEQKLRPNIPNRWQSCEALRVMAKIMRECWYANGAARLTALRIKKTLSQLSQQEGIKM

With `CCS(=O)(=O)N1Cc2nc(-c3cc(-c4cn(C)nc4-c4cccc(C)n4)ccn3)[nH]c2C1` [Compound 52, 5-(Ethylsulfonyl)-2-[4-(1-methyl-3-(6-methylpyridin-2-yl)-1H-pyrazol-4-yl)pyridin-2-yl]-1,4,5,6-tetrahydropyrrolo[3,4-d]imidazole] as the molecule, how does the IC50 read?
The IC50 was 2.1 nM.

For `Cc1cccc(-c2nn(Cc3ccccn3)cc2-c2ccnc(-c3nc4c([nH]3)CN(S(C)(=O)=O)C4)c2)n1` [Compound 53, 2-[4-(3-(6-Methylpyridin-2-yl)-1-(pyridin-2-ylmethyl)-1H-pyrazol-4-yl)pyridin-2-yl]-5-(methylsulfonyl)-1,4,5,6-tetrahydropyrrolo[3,4-d]imidazole], which IC50 is on record?
The IC50 was 2.5 nM.

`Cc1cccc(-c2nn(Cc3cccnc3)cc2-c2ccnc(-c3nc4c([nH]3)CN(S(C)(=O)=O)C4)c2)n1` [Compound 54, 2-[4-(3-(6-Methylpyridin-2-yl)-1-(pyridin-3-ylmethyl)-1H-pyrazol-4-yl)pyridin-2-yl]-5-(methylsulfonyl)-1,4,5,6-tetrahydropyrrolo[3,4-d]imidazole] was tested. Which IC50 did it give?
The IC50 was 1.4 nM.

For `Cc1cccc(-c2nn(Cc3ccncc3)cc2-c2ccnc(-c3nc4c([nH]3)CN(S(C)(=O)=O)C4)c2)n1` [Compound 55, 2-[4-(3-(6-Methylpyridin-2-yl)-1-(pyridin-4-ylmethyl)-1H-pyrazol-4-yl)pyridin-2-yl]-5-(methylsulfonyl)-1,4,5,6-tetrahydropyrrolo[3,4-d]imidazole], which IC50 is on record?
Its IC50 is 5 nM.

For `Cc1cccc(-c2nn(C)cc2-c2ccnc(-c3nc4c([nH]3)CN(C(=O)N(C)C)C4)c2)n1` [Compound 58, N,N-Dimethyl-2-(4-(1-methyl-3-(6-methylpyridin-2-yl)-1H-pyrazol-4-yl)pyridin-2-yl)-4,6-dihydropyrrolo[3,4-d]imidazol-5(1H)-carboxamide], which IC50 is on record?
The IC50 was 1.8 nM.

Which IC50 does the source give for `Cc1cccc(-c2n[nH]cc2-c2ccnc(-c3nc4c([nH]3)CN(C(=O)N(C)C)C4)c2)n1` [Compound 59, N,N-Dimethyl-2-(4-(3-(6-methylpyridin-2-yl)-1H-pyrazol-4-yl)pyridin-2-yl)-4,6-dihydro pyrrolo[3,4-d]imidazol-5(1H)-carboxamide] here?
Its IC50 is 9.2 nM.

`CCn1cc(-c2ccnc(-c3nc4c([nH]3)CN(C(=O)N(C)C)C4)c2)c(-c2cccc(C)n2)n1` [Compound 60, 2-(4-(1-Ethyl-3-(6-methylpyridin-2-yl)-1H-pyrazol-4-yl)pyridin-2-yl)-N,N-dimethyl-4,6-dihydropyrrolo[3,4-d]imidazol-5(1H)-carboxamide] was tested. Which IC50 did it give?
Its IC50 is 1.8 nM.

Which IC50 does the source give for `Cc1cccc(-c2nc3n(c2-c2ccnc(-c4nc5c([nH]4)CN(S(C)(=O)=O)CC5)c2)CCC3)n1` [Compound 63, 2-(4-(2-(6-methylpyridin-2-yl)-6,7-dihydro-5H-pyrrolo[1,2-a]imidazol-3-yl)pyridin-2-yl)-5-(methylsulfonyl)-4,5,6,7-tetrahydro-3H-imidazolo[4,5-c]pyridine] here?
The IC50 was 1.6 nM.

How did the IC50 turn out when `Cc1cccc(-c2nc3n(c2-c2ccnc(-c4nc5c([nH]4)CN(C(=O)CC#N)C5)c2)CCC3)n1` [Compound 64, 3-(2-(4-(2-(6-Methylpyridin-2-yl)-6,7-dihydro-5H-pyrrolo[1,2-a]imidazol-3-yl)pyridin-2-yl)-4,6-dihydropyrrolo[3,4-d]imidazol-5(1H)-yl)-3-oxopropanenitrile] was run?
The IC50 was 7.3 nM.

How did the IC50 turn out when `Cc1cccc(-c2nn3c(c2-c2ccnc(-c4nc5c([nH]4)CN(C(=O)C4CC(O)C4)C5)c2)CCC3)n1` (stereo not drawn) [Compound 65, (3-Hydroxycyclobutyl)(2-(4-(2-(6-methylpyridin-2-yl)-5,6-dihydro-4H-pyrrolo[1,2-b]pyrazol-3-yl)pyridin-2-yl)-4,6-dihydropyrrolo[3,4-d]imidazol-5(1H)-yl)ketone] was run?
The IC50 was 0.7 nM.

Which IC50 does the source give for `Cc1cccc(-c2nn3c(c2-c2ccnc(-c4nc5c([nH]4)CN(S(C)(=O)=O)C5)c2)CCC3)n1` [Compound 66, 2-(4-(2-(6-Methylpyridin-2-yl)-5,6-dihydro-4H-pyrrolo[1,2-b]pyrazol-3-yl)pyridin-2-yl)-5-(methylsulfonyl)-1,4,5,6-tetrahydropyrrolo[3,4-d]imidazole] here?
Its IC50 is 4 nM.

Which IC50 does the source give for `Cc1cccc(-c2nn3c(c2-c2ccnc(-c4nc5c([nH]4)CN(C(=O)N(C)C)C5)c2)CCC3)n1` [Compound 67, N,N-Dimethyl-2-(4-(2-(6-methylpyridin-2-yl)-5,6-dihydro-4H-pyrrolo[1,2-b]pyrazol-3-yl)pyridin-2-yl)-4,6-dihydropyrrolo[3,4-d]imidazole-5(1H)-carboxamide] here?
Its IC50 is 2 nM.

How did the IC50 turn out when `CCS(=O)(=O)N1Cc2nc(-c3cc(-c4c(-c5cccc(C)n5)nn5c4CCC5)ccn3)[nH]c2C1` [Compound 68] was run?
The IC50 was 8.1 nM.

How did the IC50 turn out when `Cc1cccc(-c2nn3c(c2-c2ccnc(-c4nc5c([nH]4)CN(S(=O)(=O)C(C)C)C5)c2)CCC3)n1` [Compound 69, 5-(Isopropylsulfonyl)-2-(4-(2-(6-methylpyridin-2-yl)-5,6-dihydro-4H-pyrrolo[1,2-b]pyrazol-3-yl)pyridin-2-yl)-1,4,5,6-tetrahydropyrrolo[3,4-d]imidazole] was run?
The IC50 was 1.3 nM.

`Cc1cccc(-c2nn3c(c2-c2ccnc(-c4nc5c([nH]4)CN(C(=O)C4CCN(C)CC4)C5)c2)CCC3)n1` [Compound 73, (1-Methylpiperidin-4-yl)(2-(4-(2-(6-methylpyridin-2-yl)-5,6-dihydro-4H-pyrrolo[1,2-b]pyrazol-3-yl)pyridin-2-yl)-4,6-dihydropyrrolo[3,4-d]imidazol-5(1H)-yl)ketone] was tested. Which IC50 did it give?
The IC50 was 2.8 nM.

`CCN(C)C(=O)N1Cc2nc(-c3cc(-c4c(-c5cccc(C)n5)nn5c4CCC5)ccn3)[nH]c2C1` [Compound 74, N-Ethyl-N-methyl-2-(4-(2-(6-methylpyridin-2-yl)-5,6-dihydro-4H-pyrrolo[1,2-b]pyrazol-3-yl)pyridin-2-yl)-4,6-dihydropyrrolo[3,4-d]imidazole-5(1H)-carboxamide] was tested. Which IC50 did it give?
The IC50 was 1.7 nM.

`Cc1cccc(-c2nc3n(c2-c2ccnc(-c4nc5c([nH]4)CNCC5)c2)CCC3)n1` [Compound 75, 2-(4-(2-(6-Methylpyridin-2-yl)-6,7-dihydro-5H-pyrrolo[1,2-a]imidazol-3-yl)pyridin-2-yl)-4,5,6,7-tetrahydro-3H-imidazolo[4,5-c]pyridine] was tested. Which IC50 did it give?
Its IC50 is 5.6 nM.

With `Cc1cccc(-c2n[nH]cc2-c2ccnc(-c3nc4c([nH]3)CNCC4)c2)n1` [Compound 76] as the molecule, how does the IC50 read?
Its IC50 is 13 nM.
